Measurements reported in patent publication US7273845B2, “Polymeric prodrugs of vancomycin” (priority 2002, dated 2007).

Experiments:
[1] = system: Staphylococcus aureus (Smith); experiment: LD90-100 examination, compound given after S. aureus (Smith) challenge, survival; format: in vivo, ICR Swiss mice; conditions: 100 mg/kg vancomycin equivalents in two equal split doses 1 and 2.5 h following LD90-100 S. aureus (Smith) inoculation; survival after 1 week
Procedure: Studies examining the in vivo anti-infective potential of PEG-vancomycin conjugates in ICR Swiss mice were performed. […] As controls, S. aureus (Smith) challenged mice were administered either saline or 100 mg/kg vancomycingiven in equal split doses. Ten mice were used per compound tested.

S. aureus (Smith) = experiment: Sustained anti-infective protection, compound given before LD90-100 S. aureus (Smith) challenge, survival; format: in vivo, ICR Swiss mice
Procedure: A second study was also performed to examine the sustained anti-infective protection of PEG-vancomycin conjugate 22. ICR Swiss mice were administered with either 100 mg/kg vancomycin equivalents of 22, 100 mg/kg vancomycin, or saline in two equally split doses 1½ hours apart. Ten mice per treatment group were used.

E.coli (25922) = experiment: Minimum Inhibitory Concentration (MIC), E.coli (25922); format: cell-based; conditions: vancomycin equivalents
E. faecalis (29212) = experiment: Minimum Inhibitory Concentration (MIC), E. faecalis (29212); format: cell-based; conditions: vancomycin equivalents
S. aureus (29214) = experiment: Minimum Inhibitory Concentration (MIC), S. aureus (29214); format: cell-based; conditions: vancomycin equivalents
S. aureus (6538P) = experiment: Minimum Inhibitory Concentration (MIC), S. aureus (6538P); format: cell-based; conditions: vancomycin equivalents
[2] = Circulatory pharmacokinetics after single intravenous dose in rats; conditions: for Vss: 50 mg/kg
Procedure: PEG-vancomycin conjugates containing a 50 mg/kg vancomycin equivalent dose and 50 mg/kg native vancomycin (1) were injected as a single intravenous dose into the tail vein of conscious rats at a rate of 0.5 ml/min [˜2.5 min]. […] A 250 μL bled was done on rats sedated with 30% O2/70% CO2 via the retro-orbital plexus into EDTA containing vials. Blood was immediately processed for plasma and frozen on dry ice. Plasma samples were stored at −80° C. until analyzed. The plasma samples were analyzed by a fluorescence polarization immunoassay using an Abbott Laboratories TDx analyzer within two hours of thawing. A single compartment model using WinNonlin™ software was used to determine the-plasma pharmacokinetic parameters.

[3] = 50 mg/kg vancomycin equivalents i.v.
[4] = intravenous bolus 50 mg/kg vancomycin equivalents, plasma

vancomycin [Compound 1]
Post Challenge % Survival (mice) [1]: 100%
anti-microbial protection against later S. aureus challenge (in words) (S. aureus (Smith); 100 mg/kg vancomycin equivalents given before challenge, ICR Swiss mice): no protection
Pre-Challenge % Survival (mice) (S. aureus (Smith); 100 mg/kg vancomycin equivalents in two split doses 1½ h apart, given prior to LD90-100 S. aureus (Smith) challenge, survival after 1 week): 0%
MIC E.coli (25922) (E.coli (25922)): >100 µg/mL
MIC E. faecalis (29212) (E. faecalis (29212)): 6.2 µg/mL
MIC S. aureus (29214) (S. aureus (29214)): 3.1 µg/mL
MIC S. aureus (6538P) (S. aureus (6538P)): 1.6 µg/mL
Cmax [2, 3]: 162 µg/mL
area under the curve (AUC) [2, 3]: 78800 ng·h/mL
circulatory half-life (t1/2) [2, 3]: 20.4 min
clearance (CL) [2, 3]: 10.7 mL/min/kg
AUC [2, 4]: 78800 ± 10800 ng·h/mL
CL [2, 4]: 10.7 ± 1.4 mL/min/kg
Cmax [2, 4]: 162.0 ± 9.0 µg/mL
Plasma Half-life [2, 4]: 20.4 ± 2.4 min
Vss [2, 4]: 0.3093 ± 0.0172 L/kg
Vss ([2]; intravenous bolus 50 mg/kg vancomycin equivalents, plasma, listed as Vancomycin): 0.309 L/kg
